{"source": "paper PMC3420360", "about": "(Bioorganic & medicinal chemistry letters, 2010)", "key": {"[1]": {"target": "T1, rat TRPV1 (Rattus norvegicus, UniProt O35433)", "T1 sequence (O35433 whole entry)": "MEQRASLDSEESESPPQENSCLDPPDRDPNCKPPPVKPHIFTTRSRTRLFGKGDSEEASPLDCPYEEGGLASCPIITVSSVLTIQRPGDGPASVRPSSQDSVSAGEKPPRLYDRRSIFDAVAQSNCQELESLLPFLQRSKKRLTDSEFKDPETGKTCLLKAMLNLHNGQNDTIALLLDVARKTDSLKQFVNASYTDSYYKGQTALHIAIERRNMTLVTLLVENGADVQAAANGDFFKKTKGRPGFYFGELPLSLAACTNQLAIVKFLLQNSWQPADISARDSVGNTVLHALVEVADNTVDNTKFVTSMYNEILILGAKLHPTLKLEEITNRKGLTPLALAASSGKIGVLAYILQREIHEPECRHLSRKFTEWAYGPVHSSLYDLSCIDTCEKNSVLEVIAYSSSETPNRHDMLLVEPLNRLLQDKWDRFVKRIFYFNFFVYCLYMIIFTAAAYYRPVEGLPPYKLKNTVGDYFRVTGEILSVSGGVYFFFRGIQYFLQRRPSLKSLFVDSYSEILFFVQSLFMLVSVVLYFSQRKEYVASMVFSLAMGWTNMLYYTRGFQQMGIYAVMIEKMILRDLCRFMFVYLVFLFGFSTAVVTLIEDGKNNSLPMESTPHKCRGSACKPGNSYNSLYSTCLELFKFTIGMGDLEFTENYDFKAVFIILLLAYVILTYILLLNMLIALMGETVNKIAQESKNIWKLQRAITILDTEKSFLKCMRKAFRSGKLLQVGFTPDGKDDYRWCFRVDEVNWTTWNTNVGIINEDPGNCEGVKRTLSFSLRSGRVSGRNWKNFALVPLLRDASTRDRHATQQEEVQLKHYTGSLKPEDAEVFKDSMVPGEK", "assay": "functional 45Ca2+ uptake assay, agonism", "type": "cell-based", "conditions": "for functional pattern of agonism/antagonism: 45Ca2+ uptake, rat TRPV1 in CHO cells, result in words; for fold less potent than RTX for functional activity: agonism EC50 versus RTX"}, "[2]": {"target": "T1, rat TRPV1", "type": "cell-based", "conditions": "Ki(ant) versus 5'-iodo RTX under the same assay conditions"}}}
{"smiles": "C=C(C)[C@@]12C[C@@H](C)C34OC(Cc5ccccc5)(OC1[C@@H]3C=C(COC(=O)Cc1cc(I)c(O)c(OC)c1)C[C@]1(O)C(=O)C(C)=C[C@@H]41)O2", "note": "(some centres unmarked) [compound 2, 5-iodo RTX, reference compound]", "values": [{"measurement": "functional pattern of agonism/antagonism", "setting": "[1]", "value": "full antagonist"}]}
{"smiles": "C=C(C)[C@@]12C[C@@H](C)C34OC(Cc5ccccc5)(OC1[C@@H]3C=C(COC(=O)Cc1cc(F)c(O)c(OC)c1)C[C@]1(O)C(=O)C(C)=C[C@@H]41)O2", "note": "(some centres unmarked) [compound 31]", "values": [{"measurement": "functional pattern of agonism/antagonism", "setting": "[1]", "value": "full agonists"}, {"measurement": "fold less potent than RTX for functional activity", "setting": "[1]", "value": 9, "unit": "fold"}]}
{"smiles": "C=C(C)[C@@]12C[C@@H](C)C34OC(Cc5ccccc5)(OC1[C@@H]3C=C(COC(=O)Cc1cc(Cl)c(O)c(OC)c1)C[C@]1(O)C(=O)C(C)=C[C@@H]41)O2", "note": "(some centres unmarked) [compound 32]", "values": [{"measurement": "functional pattern of agonism/antagonism", "setting": "[1]", "value": "full agonists"}, {"measurement": "fold less potent than RTX for functional activity", "setting": "[1]", "value": 21, "unit": "fold"}]}
{"smiles": "C=C(C)[C@@]12C[C@@H](C)C34OC(Cc5ccccc5)(OC1[C@@H]3C=C(COC(=O)Cc1cc(Br)c(O)c(OC)c1)C[C@]1(O)C(=O)C(C)=C[C@@H]41)O2", "note": "(some centres unmarked) [compound 33]", "values": [{"measurement": "functional pattern of agonism/antagonism", "setting": "[1]", "value": "partial antagonist"}]}
{"smiles": "C=C(C)[C@@]12C[C@@H](C)C34OC(Cc5ccccc5)(OC1[C@@H]3C=C(COC(=O)Cc1cc(Br)cc(Br)c1)C[C@]1(O)C(=O)C(C)=C[C@@H]41)O2", "note": "(some centres unmarked) [compound 35]", "values": [{"measurement": "functional pattern of agonism/antagonism", "setting": "[1]", "value": "full agonist"}]}
{"smiles": "C=C(C)[C@@]12C[C@@H](C)C34OC(Cc5ccccc5)(OC1[C@@H]3C=C(COC(=O)Cc1ccc(N)c(OC)c1)C[C@]1(O)C(=O)C(C)=C[C@@H]41)O2", "note": "(some centres unmarked) [compound 36, 4-amino RTX]", "values": [{"measurement": "functional pattern of agonism/antagonism", "setting": "[1]", "value": "potent full agonism"}, {"measurement": "fold less potent than RTX (Ki and EC50)", "setting": "[1]; both binding Ki and agonism EC50 compared with RTX", "value": "2–3 fold"}]}
{"smiles": "C=C(C)[C@@]12C[C@@H](C)C34OC(Cc5ccccc5)(OC1[C@@H]3C=C(COC(=O)Cc1cc(F)c(N)c(OC)c1)C[C@]1(O)C(=O)C(C)=C[C@@H]41)O2", "note": "(some centres unmarked) [compound 37]", "values": [{"measurement": "functional pattern of agonism/antagonism", "setting": "[1]", "value": "full agonist"}, {"measurement": "fold less potent than the parent 36 (agonism)", "setting": "[1]; agonism EC50 versus 4-amino RTX (36)", "value": 2.5, "unit": "fold"}]}
{"smiles": "C=C(C)[C@@]12C[C@@H](C)C34OC(Cc5ccccc5)(OC1[C@@H]3C=C(COC(=O)Cc1cc(Cl)c(N)c(OC)c1)C[C@]1(O)C(=O)C(C)=C[C@@H]41)O2", "note": "(some centres unmarked) [compound 38]", "values": [{"measurement": "functional pattern of agonism/antagonism", "setting": "[1]", "value": "partial antagonist"}]}
{"smiles": "C=C(C)[C@@]12C[C@@H](C)C34OC(Cc5ccccc5)(OC1[C@@H]3C=C(COC(=O)Cc1cc(Br)c(N)c(OC)c1)C[C@]1(O)C(=O)C(C)=C[C@@H]41)O2", "note": "(some centres unmarked) [compound 39, 5-bromo-4-amino RTX]", "values": [{"measurement": "fold more potent than I-RTX as antagonist", "setting": "[2]", "value": 4, "unit": "fold"}, {"measurement": "functional pattern of agonism/antagonism", "setting": "[1]", "value": "full antagonist"}]}
